Where no end group is shown, it is not given here.
Key:
[1] = test system: AB-strain zebrafish embryos; test: Embryotoxicity in zebrafish; format: in vivo; settings: embryos at 28 °C for approximately 2–3 days, light microscope; for zebrafish morphology (embryotoxicity): 1 × MIC
Procedure: A sodium dehydroacetate solution of 200 μg/mL served as the positive control, while the negative control group contained only culture medium. The embryos were cultured in a constant temperature incubator at 28 °C for approximately 2–3 days, and their morphology after fertilization was observed using a light microscope.

[2] = test system: Eschericha coli ATCC25922; test: Temperature and pH stability (MIC after treatment); format: cell-based; set-up: MIC value, Control (pH 7) / MIC value after 0 °C / MIC value after 37 °C / MIC value after 100 °C / MIC value after pH 4 / MIC value after pH 6 / MIC value after pH 8 / MIC value after pH 10: unit not given beside the values; settings: for MIC value after pH 4: peptide exposed for one hour to pH 4; for MIC value after pH 4 / MIC value after pH 6 / MIC value after pH 8 / MIC value after pH 10 / MIC value after 37 °C / MIC value after 100 °C / MIC value after 0 °C / MIC value, Control (pH 7): triplicate; for MIC value after pH 6: peptide exposed for one hour to pH 6; for MIC value after pH 8: peptide exposed for one hour to pH 8; for MIC value after pH 10: peptide exposed for one hour to pH 10; for MIC value after 37 °C: peptide heated to 37 °C for 30 min before MIC; for MIC value after 100 °C: peptide heated to 100 °C for 30 min before MIC; for MIC value after 0 °C: peptide in ice-cold water at 0 °C for 30 min before MIC; for MIC value, Control (pH 7): untreated peptide, Table 2 control; for increase of MIC value at 100 °C: versus untreated control
Procedure: (§1) The strains kept at −80 °C were reactivated, plated, and incubated overnight at 37 °C. Single colonies were picked, inoculated into 5 mL of MH medium, and cultured until they reached OD600 = 0.5. The bacterial suspensions were then diluted to 1 × 10^5 CFU/mL, and 50 μL was added to wells 1–11. Then, 50 μL and 100 μL of deionized water were added to wells […], respectively, to provide a positive and a negative control. The concentration of peptide present in the first non-turbid well in which bacterial growth was inhibited was taken as the minimal inhibitory concentration (MIC). This experiment was repeated three times.
The efficacy of the chemically synthesized and in vivo-expressed LRGG peptide were tested for their efficacy against Eschericha coli ATCC 25922 under various conditions, such as heat and different pH conditions, before determining their MIC in triplicate. In one case, the peptides were placed in ice-cold water at 0 °C and heated to 37 °C and 100 °C for 30 min each, and their efficacy was compared to that of an untreated control group. This process was repeated three times. […] In another set of experiments, the peptides were mixed and incubated with 1 mg/mL of four different proteases. After inactivation of the enzymes, the peptides were tested for their efficacy against Eschericha coli ATCC 25922. The peptides were also tested after mixing with various salt solutions and concentrations of fetal bovine serum at concentrations ranging from 5% to 50%. In all cases, the MIC were determined in triplicate using untreated antimicrobial peptides as controls.

[3] = test system: Eschericha coli ATCC25922; test: Protease stability (MIC after protease treatment); format: cell-based; set-up: MIC value, Control: unit not given beside the values; settings: triplicate; for MIC value after Papain: peptide incubated with 1 mg/mL papain; for MIC value after Papain / MIC value after Pepsin / MIC value after Protease K / MIC value after Trypsin: enzyme inactivated before MIC; for MIC value after Pepsin: peptide incubated with 1 mg/mL pepsin; for MIC value after Protease K: peptide incubated with 1 mg/mL protease K; for MIC value after Trypsin: peptide incubated with 1 mg/mL trypsin; for MIC value, Control: untreated peptide, Table 3 control
Procedure: as §1
(§2) The efficacy of the chemically synthesized and in vivo-expressed LRGG peptide were tested for their efficacy against Eschericha coli ATCC 25922 under various conditions, such as heat and different pH conditions, before determining their MIC in triplicate. In one case, the peptides were placed in ice-cold water at 0 °C and heated to 37 °C and 100 °C for 30 min each, and their efficacy was compared to that of an untreated control group. This process was repeated three times. In another case, the peptides were exposed for one hour to pH values of 4, 6, 8, and 10, and their activity was compared to that of an untreated control group. In another set of experiments, the peptides were mixed and incubated with 1 mg/mL of four different proteases. After inactivation of the enzymes, the peptides were tested for their efficacy against Eschericha coli ATCC 25922. The peptides were also tested after mixing with various salt solutions and concentrations of fetal bovine serum at concentrations ranging from 5% to 50%. In all cases, the MIC were determined in triplicate using untreated antimicrobial peptides as controls.

[4] = test system: Eschericha coli ATCC25922; test: Salt ion stability (MIC in salt solutions); format: cell-based; set-up: unit not given here; settings: triplicate; for MIC value with MgCl2: 1 mM MgCl2; for MIC value with CaCl2: 2.5 mM CaCl2; for MIC value with KCl: 4.5 mM KCl; for MIC value with NH4Cl: 6 mM NH4Cl; for MIC value with NaCl: 150 mM NaCl; for MIC value, Control: untreated peptide, Table 4 control
Procedure: as §1, §2

[5] = test system: Eschericha coli ATCC25922; test: Serum stability (MIC at different serum concentrations); format: cell-based; settings: triplicate; for MIC value in 5% serum: fetal bovine serum 5%; for MIC value in 10% serum: fetal bovine serum 10%; for MIC value in 20% serum: fetal bovine serum 20%; for MIC value in 40% serum: fetal bovine serum 40%; for MIC value in 50% serum: fetal bovine serum 50%; for MIC value, Control: untreated peptide, Table 5 control
Procedure: as §1, §2

sheep red blood cells = format: cell-based; settings: red cells of sheep
Procedure: To obtain a suspension containing 2% red blood cells, 15 mL of sheep blood was collected in a tube containing 0.2% sodium heparin anticoagulant and centrifuged at 1000 rpm for 10 min. After discarding the supernatant, the red blood cell pellet was collected, washed twice with sterile phosphate buffered saline (PBS), and resuspended in PBS. […] After the erythrocyte suspension was incubated with the antimicrobial peptide LRGG for one hour at 37 °C, the mixture from each well of the 96-well plate was aspirated and centrifuged at 1000× g for 10 min. The absorbance of the supernatant was then measured at 570 nm, with three repeats and averaging. Finally, the hemolytic index was calculated as follows: Hemolytic index (%) = (O.D. peptide − O.D. PBS)/(O.D. TritonX − 100 − O.D. PBS) × 100%.

[6] = test system: Eschericha coli ATCC25922; test: Plasma membrane potential (diSC3-5); format: cell-based; settings: 1–8 MIC, 0–1500 s, diSC3-5 0.4 μM
Procedure: To determine whether the expressed antimicrobial peptide LRGG can break bacterial cytoplasmic membranes, diSC3-5 was used as a fluorescent dye to monitor changes in membrane potential. A bacterial suspension was prepared and adjusted to an ABS O.D. of 600 = 0.5. Next, the same volume of bacterial suspension and varying concentrations of expressed antimicrobial peptide LRGG (1–8 MIC) were added to black 96-well plates. A control group was established using PBS, and diSC3-5 dye was added to a final concentration of 0.4 μM and incubated at room temperature in the dark for one hour. Changes in […] between 0 and 1500 s were measured using a fluorescence microplate reader at excitation (622 nm) and emission (670 nm) wavelengths.

Compound	MIC value after pH 4 [2]	MIC value after pH 6 [2]	MIC value after pH 8 [2]	MIC value after pH 10 [2]	MIC value after 37 °C [2]	MIC value after 100 °C [2]	MIC value after 0 °C [2]	MIC value, Control (pH 7) [2]	increase of MIC value at 100 °C [2]	MIC value after Papain [3]	MIC value after Pepsin [3]	MIC value after Protease K [3]	MIC value after Trypsin [3]	MIC value, Control [3]	MIC value with MgCl2 [4]	MIC value with CaCl2 [4]	MIC value with KCl [4]	MIC value with NH4Cl [4]	MIC value with NaCl [4]	MIC value, Control [4]	also measured
CC(=O)c1c([O-])cc(C)oc1=O.[Na+] [sodium dehydroacetate, reference compound]	–	–	–	–	–	–	–	–	–	–	–	–	–	–	–	–	–	–	–	–	zebrafish morphology (embryotoxicity), positive control ([1]; 200 μg/mL): significant hemorrhage and severe bending of the fish
GLLRLLRRGGRRLLRLL [Expressed LRGG]	2	4	2	16	4	8	2	2	four-fold	>64	>128	>64	>128	4	8	4	8	4	8	4	MIC value in 5% serum [5]: 2; MIC value in 10% serum [5]: 4; MIC value in 20% serum [5]: 32; MIC value in 40% serum [5]: 32; MIC value in 50% serum [5]: 32; MIC value, Control [5]: 2; hemolytic index (sheep red blood cells): less than 10%; zebrafish morphology (embryotoxicity) [1]: did not change the morphology of the zebrafish; diSC3-5 fluorescence value (cytoplasmic membrane potential) [6]: gradually increased
H-LLRLLRRGGRRLLRLL-NH2 [Chem. Syn. LRGG]	2	2	4	4	2	8	2	2	four-fold	>64	>128	>64	>128	2	4	4	2	2	8	2	MIC value in 5% serum [5]: 2; MIC value in 10% serum [5]: 2; MIC value in 20% serum [5]: 8; MIC value in 40% serum [5]: 16; MIC value in 50% serum [5]: 16; MIC value, Control [5]: 2; zebrafish morphology (embryotoxicity) [1]: did not change the morphology of the zebrafish
